PMC8923172 (Antimicrobial Agents and Chemotherapy, 2022)
Marks after values point to notes of the source that are not given here. Residues, ends and D or L forms follow the SMILES beside them.

Assay: Hematology of rats at the end of treatment
Type: in vivo, Sprague-Dawley rats
Settings: median (IQR)

## CC[C@H](C)[C@@H]1NC(=O)[C@@H]2CSSC[C@H](NC(=O)[C@H](CCCNC(=N)N)NC(=O)[C@@H]3CSSC[C@H](NC1=O)C(=O)N[C@@H]([C@@H](C)O)C(=O)N[C@@H](CCCNC(=N)N)C(=O)NCC(=O)N[C@@H](Cc1ccccc1)C(=O)N3)C(=O)N[C@@H](CC(C)C)C(=O)N[C@H]1CSSC[C@H](NC(=O)[C@H](C(C)C)NC(=O)CNC(=O)[C@H](CCCNC(=N)N)NC(=O)[C@H](CCCNC(=N)N)NC1=O)C(=O)N[C@@H](CCCNC(=N)N)C(=O)N2 [RTD-1, Rhesus theta (θ) defensin-1] (HELM PEPTIDE1{G.F.C.R.C.L.C.R.R.G.V.C.R.C.I.C.T.R}$PEPTIDE1,PEPTIDE1,3:R3-16:R3|PEPTIDE1,PEPTIDE1,5:R3-14:R3|PEPTIDE1,PEPTIDE1,7:R3-12:R3|PEPTIDE1,PEPTIDE1,1:R1-18:R2$$$V2.0)
female, 5 mg/kg/day
  Basophils, absolute: 0.02 (0.02) 10^3/mm^3
  Eosinophils, absolute: 0.30 (0.23) 10^3/mm^3
  HDW: 2.37 (0.16) g/dL
  Hematocrits: 40.50 (1.90) %
  Hemoglobin: 13.50 (1.00) g/dL
  LUC, absolute: 0.02 (0.03) 10^3/mm^3
  Lymphocytes, absolute: 4.78 (3.21) 10^3/mm^3
  MCH: 19.10 (1.00) pg
  MCHC: 33.40 (0.40) g/dL
  MCV: 57.90 (2.80) fL
  Monocytes, absolute: 0.17 (0.08) 10^3/mm^3
  Neutrophils, absolute: 1.33 (0.99) 10^3/mm^3
  Platelets: 801.00 (306.00) 10^3/mm^3
  RBC: 6.88 (0.33) 10^6/mm^3
  RDW: 12.70 (0.80) %
  Reticulocytes, absolute: 256.70 (53.50) 10^3/mm^3
  WBC: 6.50 (3.50) 10^3/mm^3
female, 10 mg/kg/day
  Basophils, absolute: 0.04 (0.02) 10^3/mm^3
  Eosinophils, absolute: 0.33 (0.14) 10^3/mm^3
  HDW: 2.45 (0.16) g/dL
  Hematocrits: 41.15 (1.83) %
  Hemoglobin: 13.70 (0.38) g/dL
  LUC, absolute: 0.04 (0.03) 10^3/mm^3
  Lymphocytes, absolute: 7.13 (1.76)^c 10^3/mm^3
  MCH: 18.95 (0.45) pg
  MCHC: 33.25 (0.35) g/dL
  MCV: 57.30 (2.43) fL
  Monocytes, absolute: 0.39 (0.13)^c^,^d 10^3/mm^3
  Neutrophils, absolute: 2.18 (1.30) 10^3/mm^3
  Platelets: 939.00 (314.75) 10^3/mm^3
  RBC: 7.21 (0.40) 10^6/mm^3
  RDW: 12.95 (0.40) %
  Reticulocytes, absolute: 277.25 (42.00) 10^3/mm^3
  WBC: 10.75 (3.68)^c 10^3/mm^3
female, 20 mg/kg, day 2
  Basophils, absolute: 0.06 (0.06) 10^3/mm^3
  Eosinophils, absolute: 0.13 (0.06)^c^,^e 10^3/mm^3
  HDW: 2.37 (0.32) g/dL
  Hematocrits: 46.85 (14.28) %
  Hemoglobin: 15.15 (4.58) g/dL
  LUC, absolute: 0.05 (0.03) 10^3/mm^3
  Lymphocytes, absolute: 5.56 (2.93) 10^3/mm^3
  MCH: 19.60 (0.88) pg
  MCHC: 32.30 (0.30)^d^,^e g/dL
  MCV: 60.95 (2.18)^e fL
  Monocytes, absolute: 0.33 (0.26)^c 10^3/mm^3
  Neutrophils, absolute: 2.55 (2.72) 10^3/mm^3
  Platelets: 603.50 (524.00)^e 10^3/mm^3
  RBC: 7.63 (2.19) 10^6/mm^3
  RDW: 12.20 (0.57)^e %
  Reticulocytes, absolute: 325.95 (60.38)^c^,^d 10^3/mm^3
  WBC: 8.15 (5.70) 10^3/mm^3
male, 5 mg/kg/day
  Basophils, absolute: 0.03 (0.02) 10^3/mm^3
  Eosinophils, absolute: 0.37 (0.10) 10^3/mm^3
  HDW: 2.30 (0.09) g/dL
  Hematocrits: 43.75 (1.73) %
  Hemoglobin: 14.10 (0.98) g/dL
  LUC, absolute: 0.03 (0.02) 10^3/mm^3
  Lymphocytes, absolute: 6.03 (1.81) 10^3/mm^3
  MCH: 19.95 (1.35) pg
  MCHC: 32.10 (0.33) g/dL
  MCV: 61.75 (2.90) fL
  Monocytes, absolute: 0.22 (0.20) 10^3/mm^3
  Neutrophils, absolute: 2.04 (0.96) 10^3/mm^3
  Platelets: 1,052.00 (145.00) 10^3/mm^3
  RBC: 7.06 (0.23) 10^6/mm^3
  RDW: 13.95 (1.15) %
  Reticulocytes, absolute: 359.65 (38.03) 10^3/mm^3
  WBC: 8.40 (2.53) 10^3/mm^3
male, 10 mg/kg/day
  Basophils, absolute: 0.03 (0.02) 10^3/mm^3
  Eosinophils, absolute: 0.31 (0.24) 10^3/mm^3
  HDW: 2.20 (0.20) g/dL
  Hematocrits: 43.65 (1.20) %
  Hemoglobin: 14.20 (0.65) g/dL
  LUC, absolute: 0.03 (0.02) 10^3/mm^3
  Lymphocytes, absolute: 6.69 (2.92) 10^3/mm^3
  MCH: 20.20 (0.55) pg
  MCHC: 32.35 (0.72) g/dL
  MCV: 62.60 (3.05) fL
  Monocytes, absolute: 0.28 (0.10) 10^3/mm^3
  Neutrophils, absolute: 1.85 (0.61) 10^3/mm^3
  Platelets: 1,086.00 (192.25) 10^3/mm^3
  RBC: 7.06 (0.38) 10^6/mm^3
  RDW: 13.10 (1.13) %
  Reticulocytes, absolute: 314.20 (33.35)^c 10^3/mm^3
  WBC: 10.05 (3.28) 10^3/mm^3
male, 20 mg/kg, day 2
  Basophils, absolute: 0.03 (0.03) 10^3/mm^3
  Eosinophils, absolute: 0.15 (0.06)^c^,^d^,^e 10^3/mm^3
  HDW: 2.44 (0.25)^e g/dL
  Hematocrits: 37.30 (3.70)^d^,^e %
  Hemoglobin: 12.10 (1.00)^d^,^e g/dL
  LUC, absolute: 0.07 (0.05)^c^,^d^,^e 10^3/mm^3
  Lymphocytes, absolute: 4.24 (1.79)^d^,^e 10^3/mm^3
  MCH: 20.00 (0.60) pg
  MCHC: 31.80 (0.50) g/dL
  MCV: 62.50 (2.10) fL
  Monocytes, absolute: 0.93 (0.29)^c^,^d^,^e 10^3/mm^3
  Neutrophils, absolute: 8.40 (3.42)^c^,^d^,^e 10^3/mm^3
  Platelets: 728.00 (86.00)^c^,^d^,^e 10^3/mm^3
  RBC: 6.04 (0.47)^d^,^e 10^6/mm^3
  RDW: 14.30 (1.20) %
  Reticulocytes, absolute: 373.30 (106.50)^e 10^3/mm^3
  WBC: 13.70 (4.90)^c^,^d 10^3/mm^3
